How the values were obtained:
[1] = system: spleen cells; test: Plaque Forming Cell Assay (inhibition rate of the antibody production); assay type: cell-based, Balb/c strain mice; conditions: Mus musculus, read-out: Inhibition rate (antibody production, PFC); for inhibition at 10 µM: Concentration 10^-5 M; for inhibition at 0.1 µM: Concentration 10^-7 M; for inhibition at 0.01 µM: Concentration 10^-8 M
[2] = system: spleen cells; test: as above; assay type: cell-based, Balb/c strain mice; conditions: Mus musculus; Concentration 10^-6 M; read-out: Inhibition rate (antibody production, PFC)
Description: Plaque Forming Cell Assay
The plaque forming cell assay was carried out by the following manner with reference to the method of Jerne et al. [Science, 140, 405 (1963)] and the method of Yamamoto et al. [Drugs Experimental Clinical Research, III(1), 5 (1982)].
Male Balb/c strain mice (7-week-old) (Charles River Co.) were sensitized with 1×10^8 sheep erythrocytes (product of Biotest Research Institute) administered via the caudal vein, and the spleens were extirpated 6 or 7 days after the sensitization. The extirpated spleens were immersed in Hanks' solution (Nissui Seiyaku) to make a cell suspension, which was then filtered, followed by centrifugal separation at 1200 rpm for 5 minutes. After centrifugal separation, the supernatant was discarded and the precipitate was treated with Tris.NH4 Cl solution to remove the erythrocytes, and then washed three times with Hanks' solution. After discarding the supernatant, the cells were suspended in an RPMI-1640 medium (Nissui Seiyaku) containing 10% bovine fetal serum (Gibco Co.), 50 μg/ml of streptomycin (Meiji Seika), […] of penicillin (Meiji Seika) and 2-mercaptoethanol (5×10^-5 M). In each well of a micro culture plate (NUNK Co., Ltd., 24 wells) were put 2 ml of the mixture of the cell suspension containing 1×10^7 of spleen cells, 5×10^6 sheep erythrocites and a test compound solution (10^-6 M) obtained by diluting the test compound dissolved in dimethylsulfoxide (10^-2 M) with the above mentioned RPMI-1640, and the cells were cultured at 37° C. for 5 days.
After the completion of the culturing, the cells were subjected to centrifugal separation at 2000 rpm for 5 minutes, and the resulting supernatant was removed. The precipitate was suspended in 1 ml of Hanks' solution, again subjected to centrifugal separation, suspended in 1 ml of Hanks' solution, and then, 50 μl of the suspension and 50 μl of sheep erythrocytes were added to 400 μl of 0.25% agarose/Hanks' solution heated to 50° C. in advance, and the mixture was scattered on a glass slide, placed on a plaque assay plate, and together with guinea pig complement (Cedarlene Institute) diluted 40-fold with a phosphate buffer solution, incubated at 37° C. for 1 to 2 hours. The number of the appearing direct plaque cells (direct PFC count) in suspension was counted.
The inhibition rate of the antibody production of the test compound was determined by the following equation. [formula]
The compound used for comparison was 5,6-dihydro-9-fluoro-3-phenylbenz[c]acridine-7-carboxylic acid [Japanese Published Unexamined Patent Application No. 233661/90, hereinafter referred to as Compound (A)] represented by formula (A). [drawing 62]
PFC count in Control means PFC count in the absence of the test compound (dimethylsulfoxide alone).

[3] = system: dd mice; test: Acute toxicity; assay type: in vivo; conditions: mortality after 7 days
Description: The test compound was administered to dd mice having a weight of 20 to 25 g per os (p.o.) and intraperitoneally (i.p.). MLD (minimum lethal dose) was evaluated by measuring the mortality after 7 days from the day of administration.

O=C(O)c1c2c(nc3ccc(F)cc13)-c1ccc(-c3ccc(F)cc3)cc1CC2 [Compound 1, 5,6-Dihydro-9-fluoro-3-(4-fluorophenyl)benz[c]acridine-7-carboxylic acid]
inhibition at 10 µM [1]: 98.1%
inhibition at 0.1 µM [1]: 69.2%
inhibition at 1 µM [2]: 93.5%

O=C(O)c1c2c(nc3ccc(F)cc13)-c1ccc(-c3ccc(F)cc3F)cc1CC2 [Compound 2, 3-(2,4-Difluorophenyl)-5,6-dihydro-9-fluorobenz [c]acridine-7-carboxylic acid]
inhibition at 10 µM [1]: 98%
inhibition at 0.1 µM [1]: 86.7%
inhibition at 1 µM [2]: 96.3%

O=C(O)c1c2c(nc3ccc(F)cc13)-c1ccc(-c3c(F)cccc3F)cc1CC2 [Compound 3, 3-(2,6-Difluorophenyl)-5,6-dihydro-9-fluorobenz[c]acridine-7-carboxylic acid]
inhibition at 10 µM [1]: 99.7%
inhibition at 0.1 µM [1]: 68.9%
inhibition at 1 µM [2]: 99.4%
MLD (minimum lethal dose) ([3]; i.p.): > 100
MLD (minimum lethal dose) ([3]; p.o.): > 300

O=C(O)c1c2c(nc3ccc(F)cc13)-c1ccc(-c3cccs3)cc1CC2 [Compound 4, 5,6-Dihydro-9-fluoro-3-(2-thienyl)benz[c]acridine-7-carboxylic acid]
inhibition at 10 µM [1]: 99.8%
inhibition at 0.1 µM [1]: 88.4%
inhibition at 1 µM [2]: 99.2%
MLD (minimum lethal dose) ([3]; i.p.): > 100
MLD (minimum lethal dose) ([3]; p.o.): > 300

O=C(O)c1c2c(nc3ccc(F)cc13)-c1cc(F)c(-c3ccccc3F)cc1CCC2 [Compound 13, 2,10-Difluoro-6,7-dihydro-3-(2-fluorophenyl)-5H-benzo[6,7]cyclohepta[1,2-b]quinoline-8-carboxylic acid]
inhibition at 10 µM [1]: 95.2%
inhibition at 0.1 µM [1]: 82.4%
inhibition at 1 µM [2]: 95.7%

O=C(O)c1c2c(nc3ccc(F)cc13)-c1cc(F)c(-c3ccccc3)cc1CC2 [Compound 16, 2,9-Difluoro-5,6-dihydro-3-phenylbenz[c]acridine-7-carboxylic acid]
inhibition at 0.1 µM [1]: 88.5%
inhibition at 0.01 µM [1]: 56.8%
inhibition at 1 µM [2]: 94.1%

O=C(O)c1c2c(nc3ccc(F)cc13)-c1cc(F)c(-c3ccccc3F)cc1CC2 [Compound 17, 2,9-Difluoro-5,6-dihydro-3-(2-fluorophenyl)benz[c]acridine-7-carboxylic acid]
inhibition at 0.1 µM [1]: 82.5%
inhibition at 0.01 µM [1]: 59.8%
inhibition at 1 µM [2]: 91%

O=C(O)c1c2c(nc3ccc(F)cc13)-c1cc(F)c(-c3ccccc3)cc1CCC2 [Compound 28, 2,10-Difluoro-6,7-dihydro-3-phenyl-5H-benzo[6,7]cyclohepta[1,2-b]quinoline-8-carboxylic acid]
inhibition at 0.1 µM [1]: 90.1%
inhibition at 0.01 µM [1]: 73.6%
inhibition at 1 µM [2]: 93.6%
MLD (minimum lethal dose) ([3]; i.p.): > 100
MLD (minimum lethal dose) ([3]; p.o.): > 100

O=C(O)c1c2c(nc3ccc(F)cc13)-c1ccc(-c3ccccc3)cc1CCC2 [Compound 46, 6,7-Dihydro-10-fluoro-3-phenyl-5H-benzo[6,7]cyclohepta[1,2-b]quinoline-8-carboxylic acid]
inhibition at 10 µM [1]: 94.9%
inhibition at 0.1 µM [1]: 81.4%
inhibition at 1 µM [2]: 84.8%

O=C(O)c1c2c(nc3ccc(F)cc13)-c1ccc(-c3ccccc3)cc1CC2 [Compound A1, 5,6-dihydro-9-fluoro-3-phenylbenz[c]acridine-7-carboxylic acid, reference compound]
inhibition at 10 µM [1]: 78.6%
inhibition at 1 µM [2]: 45.9%
